Data taken from PubChem BioAssay AID1963964 (Molecular Pharmacology Branch, DTP, NCI, 2024).

Tested on: 997726-040-R-J2-PDC tumor spheroids, viability
Test: Anticancer human tumor 997726-040-R-J2-PDC patient-derived squamous cell lung carcinoma cell line growth inhibition [PI3K]
Conditions: spheroids with HUVEC and MSC; for IC50: curve of first compound; for viability, T/C: stronger effect = lower value
Source text: Combinatorial screen of targeted agents with the PI3K inhibitors inavolisib, alpelisib, duvelisib, and copanlisib in multi-cell type tumor spheroids
A high-throughput screen of multi-cell type tumor spheroids was designed to identify active combinations of targeted small molecules and PI3K pathway inhibitors. Complex spheroids include a stromal component modeled by human endothelial cells (HUVEC) and fibroblasts modeled by human mesenchymal stem cells (MSCs). The concentration ranges selected for each drug and investigational agent were based upon clinically achievable concentrations if the clinical Cmax of the agent was known.
Compounds. The drugs and investigational agents: inavolisib (NSC800729), alpelisib (NSC765974), duvelisib (NSC772469), copanlisib (NSC816437), ipatasertib (NSC767898), afuresertib (NSC778305), talazoparib (NSC767125), sapanisertib (NSC764658), selumetinib (NSC741078), tovorafenib (DAY101, NSC766906), vemurafenib (NSC761431), ravoxertinib (NSC781343), sotorasib (NSC818433), MRTX1133 (NSC 836407), abemaciclib (NSC 768073), palbociclib (NSC758247), venetoclax (NSC 766270), SY5609 (NSC837396), enzalutamide (NSC755605), and darolutamide (NSC825331), were obtained from the National Cancer Institute (NCI) Developmental Therapeutics Program Chemical Repository. The FDA-approved anticancer drug set is available from the NCI Developmental Therapeutics Program. […] The stock solutions were prepared in dimethyl sulfoxide (DMSO, Sigma-Aldrich, St. Louis, MO, cat. D2650) at 800-fold the tested concentration and stored at -70 degrees C prior to their use. All drugs and investigational agents were tested over a range starting from a high concentration at or near the clinical Cmax and decreasing in half-log increments. If the clinical Cmax for an agent had not been determined, the highest concentration tested was 10 microM.
Cell Culture. All cells were maintained in an incubator at 37 degrees C and 5% CO2 with 95% humidity. The PDC lines were cultured according to standard operating procedures established by the NCI PDMR (https://pdmr.cancer.gov/sops/default.htm). All PDCs were thawed and cultured in Matrigel-coated flasks prepared with a working solution of 1X Ham's F-12 nutrient mix, without supplementation (Invitrogen, Waltham, MA, cat. 11765054), 100 U/mL penicillin-streptomycin (Invitrogen, cat. 15140122), and 2.5% Matrigel (Corning Inc., Corning, NY, cat. 354248) for the first three passages. The 354836-022-R-J1-PDC, 475296-252-R-J1-PDC, and 997726-040-R-J2-PDC lines were cultured in 6A media, which includes advanced DMEM/F-12 (Thermo Fisher Scientific, cat. 12634028), 10 mM HEPES (Thermo Fisher Scientific, cat. 15630080), 1X GlutaMAX supplement (Thermo Fisher Scientific, cat. 35050061), 0.1 mg/mL primocin (InvivoGen, San Diego, CA, cat. ant-pm-2), 10% defined fetal bovine serum, heat inactivated (HyClone Laboratories Inc., Logan, UT, cat. SH30070.03HI), 50% L-WRN conditioned media (ATCC, cat. CRL-3276), 1.25 mM N-Acetyl-L-cysteine (Sigma-Aldrich, cat. A9165), 10 mM nicotinamide (Sigma-Aldrich, cat. N0636), 1X B-27 supplement (Thermo Fisher Scientific, cat. 17504044), 1X N-2 supplement (Thermo Fisher Scientific, cat. 17502048), and 10 microM Y-27632 dihydrochloride (Tocris Bioscience, Bristol, United Kingdom, cat. 1254). The 624824-186-R-J2-PDC line was cultured in 6C/Colon 1B media, which includes all 6A media components plus 50 ng/mL human EGF recombinant protein (Thermo Fisher Scientific, cat. PHG0311). […]
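Further: spheroids exposed to compounds for seven days before readout.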

`CC(=O)c1c(C)c2cnc(Nc3ccc(N4CCNCC4)cn3)nc2n(C2CCCC2)c1=O` + CC(Nc1ccc2c(c1)OCCn1cc(N3C(=O)OCC3C(F)F)nc1-2)C(N)=O gave an IC50 (second compound 0.00316 µM) of over 100 nM, an IC50 (second compound 0.01 µM) of over 100 nM and an IC50 (second compound 0.0316 µM) of 44.5 nM. The IC50 (second compound 0.1 µM) was under 0.316 nM, the IC50 (second compound 0.316 µM) was under 0.316 nM and the IC50 (second compound 1 µM) was under 0.316 nM. For the same compound, the viability, T/C (second compound 0.00316 µM, first compound 0.000316 µM) was 94.9%, the viability, T/C (second compound 0.00316 µM, first compound 0.001 µM) was 84.1% and the viability, T/C (second compound 0.00316 µM, first compound 0.00316 µM) was 83.1%. It also gave a viability, T/C (second compound 0.00316 µM, first compound 0.01 µM) of 81.9%, a viability, T/C (second compound 0.00316 µM, first compound 0.0316 µM) of 84.9% and a viability, T/C (second compound 0.00316 µM, first compound 0.1 µM) of 55.8%. For the same compound, the viability, T/C (second compound 0.01 µM, first compound 0.000316 µM) was 84.7%, the viability, T/C (second compound 0.01 µM, first compound 0.001 µM) was 80.7% and the viability, T/C (second compound 0.01 µM, first compound 0.00316 µM) was 74.1%. The viability, T/C (second compound 0.01 µM, first compound 0.01 µM) was 76.4%, the viability, T/C (second compound 0.01 µM, first compound 0.0316 µM) was 65.8% and the viability, T/C (second compound 0.01 µM, first compound 0.1 µM) was 53.9%. The viability, T/C (second compound 0.0316 µM, first compound 0.000316 µM) was 62%, the viability, T/C (second compound 0.0316 µM, first compound 0.001 µM) was 62.1% and the viability, T/C (second compound 0.0316 µM, first compound 0.00316 µM) was 63.9%. It also gave a viability, T/C (second compound 0.0316 µM, first compound 0.01 µM) of 53.9%, a viability, T/C (second compound 0.0316 µM, first compound 0.0316 µM) of 52.5% and a viability, T/C (second compound 0.0316 µM, first compound 0.1 µM) of 45%. For the same compound, the viability, T/C (second compound 0.1 µM, first compound 0.000316 µM) was 43.5%, the viability, T/C (second compound 0.1 µM, first compound 0.001 µM) was 45.4% and the viability, T/C (second compound 0.1 µM, first compound 0.00316 µM) was 46.5%. It also gave a viability, T/C (second compound 0.1 µM, first compound 0.01 µM) of 48.9%, a viability, T/C (second compound 0.1 µM, first compound 0.0316 µM) of 40.5% and a viability, T/C (second compound 0.1 µM, first compound 0.1 µM) of 29.5%. For the same compound, the viability, T/C (second compound 0.316 µM, first compound 0.000316 µM) was 38.4%, the viability, T/C (second compound 0.316 µM, first compound 0.001 µM) was 32.7% and the viability, T/C (second compound 0.316 µM, first compound 0.00316 µM) was 39.3%. The viability, T/C (second compound 0.316 µM, first compound 0.01 µM) was 30.1%, the viability, T/C (second compound 0.316 µM, first compound 0.0316 µM) was 24.4% and the viability, T/C (second compound 0.316 µM, first compound 0.1 µM) was 22.9%. It also gave a viability, T/C (second compound 1 µM, first compound 0.000316 µM) of 26.3%, a viability, T/C (second compound 1 µM, first compound 0.001 µM) of 33.2% and a viability, T/C (second compound 1 µM, first compound 0.00316 µM) of 27.5%. It also gave a viability, T/C (second compound 1 µM, first compound 0.01 µM) of 28.1%, a viability, T/C (second compound 1 µM, first compound 0.0316 µM) of 22.2% and a viability, T/C (second compound 1 µM, first compound 0.1 µM) of 15.3%.
